Reference: publication PMC9519552, “Activation of the human insulin receptor by non-insulin-related peptides” (Nature Communications, 2022)
Like-named read-outs stand apart in the source and are kept apart here. Positions of bridges follow the written chain, without caps; N, C: chain ends. Residues, ends and D or L forms follow the SMILES beside them.

Legend:
[1] = target: T1, human holoIR-A over-expressed in HEK293 cells (Homo sapiens, UniProt P06213); test: Inhibition of hIR phosphorylation by peptides, co-incubated with BHI at its EC50 (ELISA); assay type: cell-based; conditions: for hIRA Phosph IC50 Run 1 / hIRA Phosph IC50 Run 2 / hIRA Phosph IC50 Run 3: inhibition of insulin-stimulated phosphorylation; for hIRA Phosph IC50 Run 1: BHI at its EC50, run 1; for hIRA Phosph IC50 Run 2: BHI at its EC50, run 2; for hIRA Phosph IC50 Run 3: BHI at its EC50, run 3; for IC50: read-out: hIRA Phosph IC50 Mean
T1 construct: expressed in transfected cells; host or cells: HEK293, stably transfected
Procedure: Phosphorylation was quantified using an ELISA technique. Ninety-six well, flat-bottom microplates (Greiner Bio-One) were pre-coated with 2 µg mL^−1 anti-C9 monoclonal antibody (Rho 1D4; University of British Columbia)[27] in 20 mM sodium carbonate, pH 9.6, at 4 °C for overnight prior to the assay. On the assay day, plates were washed 3× with 0.1% Tween in 50 mM Tris Buffer Saline, pH 7.5 (TBST), and then blocked for greater than 1 h at room temperature (RT) with 1% BSA (Sigma) in TBST.
Stably transfected HEK293 cells over-expressing human holoIR-A containing a C-terminal C9 epitope tag ([…]), were plated at 6 × 10^4 cells per well serum-starved using 0.1% BSA in DMEM (Gibco) for overnight at standard tissue culture condition. […] After a 15-min incubation in lysis buffer at 4 °C, the lysate was transferred to anti-C9 antibody coated capture plate (Rho 1D4; University of British Columbia)[27]. […] After a 1 h incubation at room temperature, the secondary antibody was removed by washing 3× with TBST. Signal detection occurred with the addition of TMB, an HRP substrate (Pierce). After 5–10 min, the reaction was stopped by adding an equal volume of 2 M H2SO4, and the absorbance readings at 450 nm (A450) were recorded using a Envision plate reader (PerkinElmer). Samples were tested in three independent assay runs on three different days.
Percent specific response (y-axis) was plotted versus the log concentration of compound (x-axis) using Prism Version 9.3.1 (GraphPad Software). Individual measurements are provided as Source Data.

human IR-A (holoIR-A) = target: T2, human IR-A (holoIR-A) (Homo sapiens, UniProt P06213); test: holoIR-A competitive radioligand binding assay (scintillation proximity assay); conditions: for Ki: IM172N22(-) mutant peptide set
T2 construct: expressed in transfected cells; host or cells: HEK293 (ATCC #CRL-1573), stably transfected; membrane preparation
Procedure: Cellular membranes were prepared from human embryonic kidney (HEK293; ATCC #CRL-1573) cells stably transfected with cDNA corresponding to human IR-A (holoIR-A) plus a C-terminal C9 tag ([…]) inserted within a pcDNA3.1 plasmid (Invitrogen), with positive clones selected with 800 μg mL^−1 neomycin and confirmed by Western Blot. Frozen cell pellets were thawed in ice-cold homogenization/resuspension buffer (50 mM Tris-HCl, pH 7.5) containing one cOmplete® protease inhibitor tablet with EDTA (Roche Diagnostics) per 50 mL buffer. Cells were homogenized with an overhead motor-driven Teflon-glass homogenizer using 15–20 strokes, followed by centrifugation at 1100 × g for 10 min at 4 °C. The supernatant was saved on ice, pellets were homogenized as before, and centrifuged at 1100 × g for 10 min at 4 °C. Both supernatants were combined and subsequently centrifuged at 35,000 × g for 60 min at 4 °C. The pellet was resuspended in buffer (4 to 5 mL g^−1 of starting cell paste) containing protease inhibitors and quick frozen in liquid nitrogen prior to storage at −80 °C. Protein concentration was determined using a BCA kit (Thermo Scientific) with bovine serum albumin (BSA) as standard.
The assays were performed with a scintillation proximity assay (SPA) method using polyvinyltoluene (PVT) wheat germ agglutinin-coupled SPA beads (Perkin Elmer). Assay buffer containing 50 mM Tris-HCl (pH 7.5), 150 mM NaCl, 0.1% w/v fatty-acid free BSA was used for all compound testing and reagent preparation. Ten-point concentration response curves with three-fold serial dilutions of test samples or controls were prepared in the assay buffer. […] Plates were sealed and shaken for 1 min on a plate shaker. Following a 10-h incubation and bead settling period at room temperature, radioactivity was determined using a MicroBeta Trilux scintillation counter (Perkin Elmer) and expressed as counts per minute (CPM). […] Samples were tested in three independent assay runs on three different days.
All test sample concentration responses were normalized to the control response and calculated as a percent of the maximal response after correcting for nonspecific binding as shown below: %Specific Inhibition=100%−[(CPM−MIN)/(MAX−MIN)×100%]
Percent specific binding (y-axis) was plotted vs log concentration of compound (x-axis) using Prism Version 9.3.1 (GraphPad Software). Individual measurements are provided as Source Data.

[2] = mean of 3 runs, read-out: hIRA Binding Ki Mean
[3] = run 1, read-out: hIRA Binding Ki Run 1
[4] = run 2, read-out: hIRA Binding Ki Run 2
[5] = run 3, read-out: hIRA Binding Ki Run 3

T1 sequence (P06213 28-1370 isoform P06213-2 limits assumed): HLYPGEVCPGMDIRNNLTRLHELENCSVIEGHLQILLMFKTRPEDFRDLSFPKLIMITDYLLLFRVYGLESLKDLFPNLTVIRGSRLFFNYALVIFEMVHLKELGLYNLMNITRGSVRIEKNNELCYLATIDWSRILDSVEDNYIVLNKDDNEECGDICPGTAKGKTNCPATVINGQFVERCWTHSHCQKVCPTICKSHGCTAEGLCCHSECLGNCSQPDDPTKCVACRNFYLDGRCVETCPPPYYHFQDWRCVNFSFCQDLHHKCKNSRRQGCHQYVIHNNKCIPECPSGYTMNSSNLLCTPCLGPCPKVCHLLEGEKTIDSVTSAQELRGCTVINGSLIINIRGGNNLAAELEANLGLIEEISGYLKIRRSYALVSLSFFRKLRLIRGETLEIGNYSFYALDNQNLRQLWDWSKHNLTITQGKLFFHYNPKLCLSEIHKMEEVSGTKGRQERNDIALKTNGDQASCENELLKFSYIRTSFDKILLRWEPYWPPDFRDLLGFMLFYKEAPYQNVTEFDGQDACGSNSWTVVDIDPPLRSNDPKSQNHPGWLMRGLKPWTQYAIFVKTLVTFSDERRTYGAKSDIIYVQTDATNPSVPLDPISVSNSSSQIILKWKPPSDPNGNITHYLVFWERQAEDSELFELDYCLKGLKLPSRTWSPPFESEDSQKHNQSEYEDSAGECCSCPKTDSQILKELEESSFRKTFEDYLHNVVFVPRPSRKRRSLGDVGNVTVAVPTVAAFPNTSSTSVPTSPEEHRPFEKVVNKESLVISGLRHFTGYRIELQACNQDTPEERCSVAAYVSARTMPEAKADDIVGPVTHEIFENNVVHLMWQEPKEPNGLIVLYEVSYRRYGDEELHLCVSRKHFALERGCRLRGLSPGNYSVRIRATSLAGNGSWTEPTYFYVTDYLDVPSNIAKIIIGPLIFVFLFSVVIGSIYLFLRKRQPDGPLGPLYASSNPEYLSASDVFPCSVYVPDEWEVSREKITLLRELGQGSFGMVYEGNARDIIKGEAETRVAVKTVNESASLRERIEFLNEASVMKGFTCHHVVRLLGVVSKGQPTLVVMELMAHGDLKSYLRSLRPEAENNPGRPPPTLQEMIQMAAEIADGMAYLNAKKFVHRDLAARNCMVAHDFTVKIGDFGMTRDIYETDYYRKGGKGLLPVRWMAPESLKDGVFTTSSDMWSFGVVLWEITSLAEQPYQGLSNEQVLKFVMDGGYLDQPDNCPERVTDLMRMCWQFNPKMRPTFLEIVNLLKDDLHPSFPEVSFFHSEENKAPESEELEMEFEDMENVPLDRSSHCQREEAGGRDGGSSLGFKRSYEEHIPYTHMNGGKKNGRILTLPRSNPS
T1 sequence (P06213 763-1382 partner limits assumed): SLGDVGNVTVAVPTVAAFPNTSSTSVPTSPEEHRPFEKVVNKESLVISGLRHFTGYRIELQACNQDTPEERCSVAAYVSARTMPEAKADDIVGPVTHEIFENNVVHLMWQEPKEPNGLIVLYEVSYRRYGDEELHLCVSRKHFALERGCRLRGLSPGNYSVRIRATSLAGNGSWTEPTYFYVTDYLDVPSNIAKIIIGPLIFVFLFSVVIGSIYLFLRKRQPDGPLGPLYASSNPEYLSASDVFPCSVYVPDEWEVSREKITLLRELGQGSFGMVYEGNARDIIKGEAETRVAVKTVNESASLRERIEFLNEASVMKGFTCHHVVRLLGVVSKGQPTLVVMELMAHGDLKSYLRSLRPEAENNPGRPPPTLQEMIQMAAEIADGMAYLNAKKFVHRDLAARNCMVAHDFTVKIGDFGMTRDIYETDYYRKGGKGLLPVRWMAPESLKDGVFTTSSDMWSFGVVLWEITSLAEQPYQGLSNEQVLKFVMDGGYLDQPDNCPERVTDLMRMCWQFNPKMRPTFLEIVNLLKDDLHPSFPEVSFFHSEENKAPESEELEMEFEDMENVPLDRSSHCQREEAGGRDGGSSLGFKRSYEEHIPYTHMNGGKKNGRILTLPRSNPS
T2 sequence (P06213 28-1370 isoform P06213-2 limits assumed): as the sequence (P06213 28-1370 isoform P06213-2 limits assumed) above
T2 sequence (P06213 763-1382 partner limits assumed): as the sequence (P06213 763-1382 partner limits assumed) above

SMILES | hIRA Phosph IC50 Run 1 [1] [nM] | hIRA Phosph IC50 Run 2 [1] [nM] | hIRA Phosph IC50 Run 3 [1] [nM] | IC50 [1] [nM] | Ki (human IR-A (holoIR-A); [2]) [nM] | Ki (human IR-A (holoIR-A); [3]) [nM] | Ki (human IR-A (holoIR-A); [4]) [nM] | Ki (human IR-A (holoIR-A); [5]) [nM] | reduction in ki for hIR-A on substitution (human IR-A (holoIR-A); relative to control peptide IM172N22 devoid of N-terminal phenylacetylation)
CC[C@H](C)[C@H](NC(=O)[C@H](CCC(N)=O)NC(=O)[C@H](C)NC(=O)[C@H](Cc1c[nH]c2ccccc12)NC(=O)[C@H](CCC(=O)O)NC(=O)[C@H](CCC(=O)O)NC(=O)[C@H](CCC(=O)O)NC(=O)[C@H](CC(C)C)NC(=O)[C@H](CO)NC(C)=O)C(=O)N[C@@H](CCC(=O)O)C(=O)N[C@H]1CSSC[C@@H](C(=O)N2CCC[C@H]2C(=O)N2CCC[C@H]2C(=O)N[C@@H](CO)C(=O)N[C@@H](CCCNC(=N)N)C(=O)N[C@@H](CO)C(N)=O)NC(=O)[C@H](CCCNC(=N)N)NC(=O)CNC(=O)[C@H](Cc2ccc(O)cc2)NC(=O)[C@H](C(C)C)NC(=O)[C@H](CCC(=O)O)NC1=O [Peptide E21R] (Ac-SLEEEWAQIECEVYGRCPPSRS-NH2; disulfide 11-17) | 28 | 27 | 29 | 28.1 | 8.9 | 8.75 | 8.05 | 9.91 | 
CC[C@H](C)[C@H](NC(=O)[C@H](CCC(N)=O)NC(=O)[C@H](C)NC(=O)[C@H](Cc1c[nH]c2ccccc12)NC(=O)[C@H](CCC(=O)O)NC(=O)[C@H](C)NC(=O)[C@H](CCC(=O)O)NC(=O)[C@H](CC(C)C)NC(=O)[C@H](CO)NC(C)=O)C(=O)N[C@@H](CCC(=O)O)C(=O)N[C@H]1CSSC[C@@H](C(=O)N2CCC[C@H]2C(=O)N2CCC[C@H]2C(=O)N[C@@H](CO)C(=O)N[C@@H](CCC(=O)O)C(=O)N[C@@H](CO)C(N)=O)NC(=O)[C@H](CCCNC(=N)N)NC(=O)CNC(=O)[C@H](Cc2ccc(O)cc2)NC(=O)[C@H](C(C)C)NC(=O)[C@H](CCC(=O)O)NC1=O [Peptide E4A] (Ac-SLEAEWAQIECEVYGRCPPSES-NH2; disulfide 11-17) | 241 | 205 | 206 | 217 | 25.5 | 29.0 | 20.0 | 27.5 | lower than 5 fold
CC[C@H](C)[C@H](NC(=O)[C@H](CCC(N)=O)NC(=O)[C@H](C)NC(=O)[C@H](Cc1c[nH]c2ccccc12)NC(=O)[C@H](CCC(=O)O)NC(=O)[C@H](CCC(=O)O)NC(=O)[C@H](CCC(=O)O)NC(=O)[C@H](CC(C)C)NC(=O)[C@H](CO)NC(C)=O)C(=O)N[C@@H](CCC(=O)O)C(=O)N[C@H]1CSSC[C@@H](C(=O)N2CCC[C@H]2C(=O)N2CCC[C@H]2C(=O)N[C@@H](CO)C(=O)N[C@@H](CCC(=O)O)C(=O)N[C@@H](CO)C(N)=O)NC(=O)[C@H](CCCNC(=N)N)NC(=O)CNC(=O)[C@H](Cc2ccc(O)cc2)NC(=O)[C@H](C(C)C)NC(=O)[C@H](C)NC1=O [Peptide E12A] (Ac-SLEEEWAQIECAVYGRCPPSES-NH2; disulfide 11-17) | 343 | 247 | 295 | 295 | 50.3 | 44.9 | 52.2 | 53.9 | 
CC[C@H](C)[C@H](NC(=O)[C@H](CCC(N)=O)NC(=O)[C@H](C)NC(=O)[C@H](Cc1c[nH]c2ccccc12)NC(=O)[C@H](C)NC(=O)[C@H](CCC(=O)O)NC(=O)[C@H](CCC(=O)O)NC(=O)[C@H](CC(C)C)NC(=O)[C@H](CO)NC(C)=O)C(=O)N[C@@H](CCC(=O)O)C(=O)N[C@H]1CSSC[C@@H](C(=O)N2CCC[C@H]2C(=O)N2CCC[C@H]2C(=O)N[C@@H](CO)C(=O)N[C@@H](CCC(=O)O)C(=O)N[C@@H](CO)C(N)=O)NC(=O)[C@H](CCCNC(=N)N)NC(=O)CNC(=O)[C@H](Cc2ccc(O)cc2)NC(=O)[C@H](C(C)C)NC(=O)[C@H](CCC(=O)O)NC1=O [Peptide E5A] (Ac-SLEEAWAQIECEVYGRCPPSES-NH2; disulfide 11-17) | 316 | 264 | 378 | 319 | 98 | 107 | 98 | 89.4 | 
